According to patent US12630564B2, “Internal cyclic sulphiamidine amide-aryl amide compound and use thereof for treating hepatitis B” (SHANGHAI LONGWOOD BIOPHARMACEUTICALS CO., LTD., priority 2019, dated 2026):

How the values were obtained:
Assay type in all cases: cell-based
[1] = Determination of cytotoxicity, HepG2 cells, resazurin assay (Experiment 3); conditions: human
Protocol: (§1) Experiment 3: Determination of Cytotoxicity
(§2) The cytotoxicity of the test compound was tested using HepG2 cells. The cells were incubated for 4 days in the presence of the test compound. Cell activity was assessed using the resazurin assay.

[2] = system: HBV DNA in the supernatant of HepG2.2.15; test: Determination of anti-HBV activity in HepG2.2.15 cell, HBV DNA in supernatant by qPCR (Experiment 2); conditions: Hepatitis B virus, HepG2.2.15, HepG2.2.15 cells
Protocol: Experiment 2: Determination of Anti-HBV Activity in HepG2.2.15 Cell
• QIAamp 96 DNA Blood Kit (12) (Qiagen, Item No. 51162); • FastStart Universal Probe Master (Roche, Item No. 04914058001); • Cell-titer Glo Testing Reagent (Promega, Item No. G7573).
Compound dilution: all the compounds for in vitro anti-HBV activity assay and cytotoxicity assay were 3-fold diluted into 8 concentrations. The final starting concentration of the tested compound was 30 μM, the final starting concentration of reference compound GLS4 was 1 μM, and the final concentration of DMSO was 0.5%.
HepG2.2.15 cells (4×10^4 cells/well) was inoculated into 96-well plates and cultured overnight at 37° C., 5% CO2. On the second day, fresh culture medium containing different concentrations of compounds was added into the culture wells. On the fifth day, the old culture solution in the culture well was aspirated and fresh culture medium containing different concentrations of the compound was added.
On the eighth day, the supernatant in the culture well was collected for extraction of HBV DNA, and the content of HBV DNA in the supernatant of HepG2.2.15 was detected by qPCR. After the supernatant was collected, the medium and Cell-titer Glo reagent were added into the culture well, and the chemiluminescence value of each well was measured by microplate reader.
The activity calculation formula was as follows: Y=Bottom+(Top−Bottom)/(1+10^((Log IC50−X)*HillSlope)); • wherein, • X represents the logarithm of the concentration, Y represents the effect value, and Y starts from the bottom and fits to the top by S type fitting.
Bottom represents the bottom of the curve;
Top represents the top of the curve;
HillSlope represents the absolute value of the maximum slope of the curve.

[3] = system: HepG2 cells; test: Determination of cytotoxicity, HepG2 cells, resazurin assay (Experiment 3); conditions: 4 days
Protocol: as §1, §2

Row | SMILES | CC50 at 4 days [1] [nM] | EC50 [2] [nM] | CC50 [3] [nM]
1 | Cn1cc2c(c1C(=O)Nc1ccc(F)c(C#N)c1)C=C[C@H](Cc1ccc(F)cc1)NS2(=N)=O (single isomer, unassigned) [Compound 100c04] | > 30000 | 0.1 to 100 | 
2 | Cn1cc2c(c1C(=O)Nc1ccc(F)c(C#N)c1)C=C[C@H](C1CC1)NS2(=N)=O (single isomer, unassigned) [Compound 100a04] | > 30000 | 0.1 to 100 | 
3 | CC(C)[C@@H]1C=Cc2c(cn(C)c2C(=O)Nc2ccc(F)c(C#N)c2)S(=N)(=O)N1 (single isomer, unassigned) [Compound 10h2] |  |  | > 30000
4 | Cn1cc2c(c1C(=O)Nc1ccc(F)c(C#N)c1)CC[C@H](CC1CC1)NS2(=N)=O (single isomer, unassigned) [Compound 100b02] | > 30000 | 0.1 to 100 | 
5 | CC(C)[C@H]1C=Cc2c(cn(C)c2C(=O)Nc2ccc(F)c(C#N)c2)S(=N)(=O)N1 (single isomer, unassigned) [Compound 10b2] |  |  | > 30000
6 | Cn1cc2c(c1C(=O)Nc1ccc(F)c(C#N)c1)CC[C@H](Cc1ccc(F)cc1)NS2(=N)=O (single isomer, unassigned) [Compound 100c02] | > 30000 | 0.1 to 100 | 
7 | COc1ccc(C[C@H]2C=Cc3c(cn(C)c3C(=O)Nc3ccc(F)c(C#N)c3)S(=N)(=O)N2)cc1 (single isomer, unassigned) [Compound 100c16] | > 30000 | 0.1 to 100 | 
8 | Cn1cc2c(c1C(=O)Nc1ccc(F)c(C#N)c1)CC[C@H](C1CC1)NS2(=N)=O (single isomer, unassigned) [Compound 100a02] |  |  | > 30000
9 | COc1ccc(C[C@H]2CCc3c(cn(C)c3C(=O)Nc3ccc(F)c(C#N)c3)S(=N)(=O)N2)cc1 (single isomer, unassigned) [Compound 100c14] | > 30000 | 0.1 to 100 | 
10 | Cn1cc2c(c1C(=O)Nc1ccc(F)c(C#N)c1)C=C[C@H](CC1CC1)NS2(=N)=O (single isomer, unassigned) [Compound 100b04] | > 30000 | 0.1 to 100 | 
11 | Cn1cc2c(c1C(=O)Nc1ccc(F)c(C#N)c1)CC[C@H](C1CC1)NS2(=N)=O (single isomer, unassigned) [Compound 100a01] | > 30000 |  | 
